# According to patent US20120087864A1, “METHOD FOR DIAGNOSING AND/OR EVALUATING RETINAL DISEASE” (R-TECH UENO, LTD., priority 2010, published 2012):
# “And” between values parts separate entries of the source, which are not always exact repeats. Equal entries are not always repeated. Marks after values point to notes of the source that are not given here.
# Key:
# [1] = system: patient with retinal pigmentosa; test: Safety evaluation: side effects until completion of medication (24 weeks); format: in vivo, human
# Source text: Safety evaluation (1. Adverse event, 2. Side effect, 3. Ophthalmologic examination, Vital signs, Clinical examination result)
# A list of items of the side effect confirmed until completion of medication (24 weeks) in Test Example 1, and the number of appearance cases and the appearance ratio of the side effect of each group are shown in Table 10.
# [2] = system: patient with retinal pigmentosa; test: MP-1 microperimeter retinal sensitivity of central 2 degrees (4 points); format: in vivo, human; conditions: 0.15% solution twice a day; for average retinal sensitivity by MP-1 in central 2 degrees (4 points), change value: change from 0 week
# Description: One drop or two drops of isopropyl unoprostone 0.15 w/v % ophthalmic solution per one time was administered to each eye of patient with retinal pigmentosa daily for 24 weeks, and the following items were examined. 112 patients participated this test.
# Using an combined equipment having a retinal camera and an automatic perimeter, retinal sensitivity of measurement points set preliminarily on the eyeground retina was automatically measured. The feature of MP-1 is that tracking can be automatically performed according to the eye movement, and retinal sensitivity of a local part of the eyeground can be accurately measured by correcting a gap detected during a test. Also, it is possible to serially measure retinal sensitivity at the same site of the eyeground since a test can be performed at the same measurement point of retina as that of the previous test.
# Change in retinal sensitivity of central 2 degrees (4 points) through MP-1 microperimeter
# The value of the average retinal sensitivity by MP-1 in central 2 degrees (4 points) changed from the value at the time of completion of the pre-observation period (0 week) at each measurement time point (time of hospital visiting of subject) was calculated in each eye.
# The retinal sensitivity by MP-1 central 2 degrees (4 points) was measured at a pre-observation period, after 4 weeks, after 8 weeks, after 16 weeks and after 24 weeks. It is estimated that variation (error) due to seasonal variation during measuring for 24 weeks may arise. For the purpose of absolutely evaluating the effect of the drug, in order to grasp an overview including negation of both improvement and aggravation, between-group comparison was made by adding up of a difference (change value) with the pre-observation period in four measurements.
# [3] = one drop per time group, after 24 weeks
# [4] = two drops per time group, after 24 weeks
smiles,measurement,setting,value
"CCCCCCCC(=O)CC[C@@H]1[C@@H](C/C=C\CCCC(=O)OC(C)C)[C@@H](O)C[C@H]1O [isopropyl unoprostone, (+)-isopropyl (Z)-7-[(1R,2R,3R,5S)-3,5-dihydroxy-2-(3-oxodecyl)cyclopentyl]hept-5-enoate]",serious side effect,[1]; any group (one drop and two drops per time),no serious side effect
same,"All side effects, number of appearance cases",[1]; one drop per time (39 cases),28 (71.8%) cases (%) and 28 (71.8) cases (%)
same,"Bloodshot eyes, number of appearance cases",[1]; one drop per time (39 cases),1 (2.6) cases (%)
same,"Bloodshot, number of appearance cases",[1]; one drop per time (39 cases),0 (0.0) cases (%)
same,"Dry eye, number of appearance cases",[1]; one drop per time (39 cases),1 (2.6) cases (%)
same,"Eye abnormality, number of appearance cases",[1]; one drop per time (39 cases),0 (0.0) cases (%)
same,"Eye irritation, number of appearance cases",[1]; one drop per time (39 cases),9 (23.1) cases (%)
same,"Eye pruritus, number of appearance cases",[1]; one drop per time (39 cases),1 (2.6) cases (%)
same,"Eye swelling, number of appearance cases",[1]; one drop per time (39 cases),1 (2.6) cases (%)
same,"Foreign body sensation, number of appearance cases",[1]; one drop per time (39 cases),1 (2.6) cases (%)
same,"Hypertrichosis, number of appearance cases",[1]; one drop per time (39 cases),0 (0.0) cases (%)
same,"Irritation of applied site, number of appearance cases",[1]; one drop per time (39 cases),13 (33.3) cases (%)
same,"Macular edema, number of appearance cases",[1]; one drop per time (39 cases),1 (2.6) cases (%)
same,"Macular hole, number of appearance cases",[1]; one drop per time (39 cases),0 (0.0) cases (%)
same,"Punctate keratitis, number of appearance cases",[1]; one drop per time (39 cases),4 (10.3) cases (%)
same,"All side effects, number of appearance cases",[1]; two drops per time (38 cases),21 (55.3%) cases (%) and 21 (55.3) cases (%)
same,"Bloodshot eyes, number of appearance cases",[1]; two drops per time (38 cases),0 (0.0) cases (%)
same,"Bloodshot, number of appearance cases",[1]; two drops per time (38 cases),1 (2.6) cases (%)
same,"Dry eye, number of appearance cases",[1]; two drops per time (38 cases),0 (0.0) cases (%)
same,"Eye abnormality, number of appearance cases",[1]; two drops per time (38 cases),1 (2.6) cases (%)
same,"Eye irritation, number of appearance cases",[1]; two drops per time (38 cases),4 (10.5) cases (%)
same,"Eye pruritus, number of appearance cases",[1]; two drops per time (38 cases),1 (2.6) cases (%)
same,"Eye swelling, number of appearance cases",[1]; two drops per time (38 cases),0 (0.0) cases (%)
same,"Foreign body sensation, number of appearance cases",[1]; two drops per time (38 cases),0 (0.0) cases (%)
same,"Hypertrichosis, number of appearance cases",[1]; two drops per time (38 cases),1 (2.6) cases (%)
same,"Irritation of applied site, number of appearance cases",[1]; two drops per time (38 cases),13 (34.2) cases (%)
same,"Macular edema, number of appearance cases",[1]; two drops per time (38 cases),0 (0.0) cases (%)
same,"Macular hole, number of appearance cases",[1]; two drops per time (38 cases),0 (0.0) cases (%)
same,"Punctate keratitis, number of appearance cases",[1]; two drops per time (38 cases),4 (10.5) cases (%)
same,"MP-1 central 2 degrees (4 points) average retinal sensitivity: aggravation by 4 dB or more, number of cases (%)",[2]; [3],6 (15.8%) cases (%)
same,"MP-1 central 2 degrees (4 points) average retinal sensitivity: improvement by 4 dB or more, number of cases (%)",[2]; [3],3 (7.9%) cases (%)
same,"MP-1 central 2 degrees (4 points) average retinal sensitivity: no change, number of cases (%)",[2]; [3],29 (76.3%) cases (%)
same,"average retinal sensitivity by MP-1 in central 2 degrees (4 points), change value","[2]; two drops per time group, after 4 weeks",0.5 dB
same,"average retinal sensitivity by MP-1 in central 2 degrees (4 points), change value","[2]; two drops per time group, after 8 weeks",1.013 dB
same,"average retinal sensitivity by MP-1 in central 2 degrees (4 points), change value","[2]; two drops per time group, after 16 weeks",0.713 dB
same,"MP-1 central 2 degrees (4 points) average retinal sensitivity: aggravation by 4 dB or more, number of cases (%)",[2]; [4],1 (2.6%) cases (%) and 1 (2.9%)* cases (%)
same,"MP-1 central 2 degrees (4 points) average retinal sensitivity: improvement by 4 dB or more, number of cases (%)",[2]; [4],6 (17.1%) cases (%)
same,"MP-1 central 2 degrees (4 points) average retinal sensitivity: no change, number of cases (%)",[2]; [4],28 (80.0%) cases (%)
same,"average retinal sensitivity by MP-1 in central 2 degrees (4 points), change value",[2]; [4],1.1^† dB
same,"average retinal sensitivity by MP-1 in central 2 degrees (4 points), comparison of change value","[2]; two drops per time group, change values of four measurements (4, 8, 16, 24 weeks) added up",0.826* dB
